# Data reported in patent publication US6727066B2, “Genes expressed in treated human C3A liver cell cultures” (Incyte Corporation, priority 2000, dated 2004).
# How the values were obtained:
# [1] = in vivo; cited from earlier work
# [2] = tested on: human C3A liver cell cultures; assay: Microarray differential expression of cDNAs in treated human C3A liver cell cultures; assay type: cell-based; conditions: change vs untreated C3A cells
# Text: Incyte clones represent template sequences derived from the LIFESEQ GOLD assembled human sequence database (Incyte Genomics). In cases where more than one clone was available for a particular template, the 5′-most clone in the template was used on the microarray. The GENEALBUM GEM series 1-6 microarrays (Incyte Genomics) contain 52,616 array elements which represent 17,472 annotated clusters and 35,144 unannotated clusters. The HUMAN GENOME GEM series 1-3 microarrays (Incyte Genomics) contain 28,626 array elements which represent 10,068 annotated clusters and 18,558 unannotated clusters. For the UNIGEM series microarrays (Incyte Genomics), Incyte clones were mapped to non-redundant Unigene clusters (Unigene database (build 46), NCBI; Shuler (1997) J Mol Med 75:694-698), and the 5′ clone with the strongest BLAST alignment (at least 90% identity and 100 bp overlap) was chosen, verified, and used in the construction of the microarray. The UNIGEM V microarray (Incyte Genomics) contains 7075 array elements which represent 4610 annotated genes and 2,184 unannotated clusters.
# To construct microarrays, cDNAs were amplified from bacterial cells using primers complementary to vector sequences flanking the cDNA insert. […] Amplified cDNAs were then purified using […]-400 columns (APB). Purified cDNAs were immobilized on polymer-coated glass slides. Glass microscope slides (Corning, Corning N.Y.) were cleaned by ultrasound in 0.1% SDS and acetone, with extensive distilled water washes between and after treatments. Glass slides were etched in 4% hydrofluoric acid (VWR Scientific Products, West Chester Pa.), washed thoroughly in distilled water, and coated with 0.05% aminopropyl silane (Sigma Aldrich) in 95% ethanol. Coated slides were cured in a 110° C. oven. cDNAs were applied to the coated glass substrate using a procedure described in U.S. Pat. No. 5,807,522. One microliter of the cDNA at an average concentration of 100 ng/ul was loaded into the open capillary printing element by a high-speed robotic apparatus which then deposited about 5 nl of cDNA per slide.
# Microarrays were UV-crosslinked using a […] UV-crosslinker (Stratagene), and then washed at room temperature once in 0.2% SDS and three times in distilled water. Non-specific binding sites were blocked by incubation of microarrays in 0.2% casein in phosphate buffered saline (Tropix, Bedford Mass.) for 30 minutes at 60° C. followed by washes in 0.2% SDS and distilled water as before.
# Early confluent C3A cells (ATTC, Manassas Va.) were treated with captopril (0.5, 2, 48, and 60 μg/ml) for 1, 3, and 6 hours. Early confluent C3A cells were treated with enalapril (0.5, 2, 48, and 60 μg/ml) for 1, 3, and 6 hours. Early confluent C3A cells were treated with LY294002 (0.5, 2, 15, and 25 μg/ml) for 1, 3, and 6 hours. Early confluent C3A cells were starved of insulin for 3 days prior to treatment, then treated with LY294002 (10 μM) for 2, 24, 36, and 72 hours in the presence of insulin. Early confluent C3A cells were treated with DES (1, 10, and 100 μM) for 1, 3, and 6 hours. Early confluent C3A cells were treated with dexamethasone (1 and 20 μM) for 0, 2, 6, and 24 hours. Early confluent C3A cells were treated with MCA (0.5 and 10 μM) for 2, 6, and 24 hours. In all cases mRNA from untreated early confluent cells were prepared in parallel as described below.
# Cells were harvested and lysed in 1 ml of TRIZOL reagent (5×10^6 cells/ml; Life Technologies). The lysates were vortexed thoroughly and incubated at room temperature for 2-3 minutes and extracted with 0.5 ml chloroform. The extract was mixed, incubated at room temperature for 5 minutes, and centrifuged at 15,000 rpm for 15 minutes at 4° C. The aqueous layer was collected and an equal volume of isopropanol was added.
compound,measurement,setting,value
"C[C@H](N[C@@H](CCc1ccccc1)C(=O)O)C(=O)N1CCC[C@H]1C(=O)O [Enalaprilat, enalaprilat]",plasma half-life,[1],about 11 hours
CCOC(=O)C(C)(C)Oc1ccc(Cl)cc1 [Clofibrate],expression level of cDNA clone 63038,[2],−3.95
same,expression level of cDNA clone 86390,[2],−2.83
same,expression level of cDNA clone 118501,[2],4.87
same,expression level of cDNA clone 280932,[2],−2.8
same,expression level of cDNA clone 341884,[2],−2.32
same,expression level of cDNA clone 348143,[2],2.11
same,expression level of cDNA clone 407032,[2],−3.05
same,expression level of cDNA clone 460779,[2],2.26
same,expression level of cDNA clone 630625,[2],2.53
same,expression level of cDNA clone 758192,[2],3.11
same,expression level of cDNA clone 818192,[2],2.87
same,expression level of cDNA clone 1308112,[2],2.19
same,expression level of cDNA clone 1315663,[2],−3.18
same,expression level of cDNA clone 1379063,[2],−2.38
same,expression level of cDNA clone 1448718,[2],−2.95
same,expression level of cDNA clone 1464613,[2],−2.39
same,expression level of cDNA clone 1511658,[2],−3.56
same,expression level of cDNA clone 1519683,[2],−2.12
same,expression level of cDNA clone 1559665,[2],−4.058
same,expression level of cDNA clone 1619292,[2],−3.07
same,expression level of cDNA clone 1696224,[2],11.91
same,expression level of cDNA clone 1705208,[2],4.2
same,expression level of cDNA clone 1711151,[2],2.4
same,expression level of cDNA clone 1838114,[2],−2.65
same,expression level of cDNA clone 1845046,[2],−2.5
same,expression level of cDNA clone 1846463,[2],3.62
same,expression level of cDNA clone 1890791,[2],2.7
same,expression level of cDNA clone 1920215,[2],−2.59
same,expression level of cDNA clone 1922468,[2],3.03
same,expression level of cDNA clone 1926883,[2],2.94
same,expression level of cDNA clone 1930235,[2],2.73
same,expression level of cDNA clone 1958226,[2],−2.52
same,expression level of cDNA clone 1966517,[2],−2.8
same,expression level of cDNA clone 1969563,[2],3.78
same,expression level of cDNA clone 1998269,[2],2.7
same,expression level of cDNA clone 2042056,[2],2.5
same,expression level of cDNA clone 2055569,[2],−2.76
same,expression level of cDNA clone 2123516,[2],8.29
same,expression level of cDNA clone 2273944,[2],2.48
same,expression level of cDNA clone 2278688,[2],−2.37
same,expression level of cDNA clone 2352645,[2],3.77
same,expression level of cDNA clone 2365335,[2],−2.67
same,expression level of cDNA clone 2382192,[2],−2.54
same,expression level of cDNA clone 2470485,[2],−2.45
same,expression level of cDNA clone 2740665,[2],−2.54
same,expression level of cDNA clone 2757583,[2],2.8
same,expression level of cDNA clone 2769888,[2],−2.79
same,expression level of cDNA clone 2884613,[2],2.54
same,expression level of cDNA clone 2890336,[2],−2.38
same,expression level of cDNA clone 2921991,[2],−3.1
same,expression level of cDNA clone 2933775,[2],4
same,expression level of cDNA clone 2957205,[2],2.94
same,expression level of cDNA clone 2999855,[2],2.4
same,expression level of cDNA clone 3038508,[2],2.57
same,expression level of cDNA clone 3136857,[2],−3.24
same,expression level of cDNA clone 3222802,[2],2.71
same,expression level of cDNA clone 3380034,[2],−3.15
same,expression level of cDNA clone 3494714,[2],−2.53
same,expression level of cDNA clone 4066764,[2],−2.3
same,expression level of cDNA clone 4087621,[2],−3.55
same,expression level of cDNA clone 4110976,[2],2.18
same,expression level of cDNA clone 4246966,[2],8.12
same,expression level of cDNA clone 4287327,[2],−3.47
same,expression level of cDNA clone 4721130,[2],4.25
same,expression level of cDNA clone 4795635,[2],−2.38
same,expression level of cDNA clone 5047895,[2],−2.44
same,expression level of cDNA clone 5077219,[2],−2.63
same,expression level of cDNA clone 5398014,[2],−2.67
same,expression level of cDNA clone 5398701,[2],−3.55
same,expression level of cDNA clone 5541949,[2],2.38
"CC/C(=C(/CC)c1ccc(O)cc1)c1ccc(O)cc1 [DES, Diethylstilbestrol]",expression level of cDNA clone 60123,[2],2.6
same,expression level of cDNA clone 172023,[2],2.85
same,expression level of cDNA clone 437481,[2],2.24
same,expression level of cDNA clone 443991,[2],2.62
same,expression level of cDNA clone 510056,[2],2.73
same,expression level of cDNA clone 891322,[2],3.81
same,expression level of cDNA clone 970905,[2],2.25
same,expression level of cDNA clone 1272483,[2],2.51
same,expression level of cDNA clone 1326255,[2],−2.7
same,expression level of cDNA clone 1956982,[2],−2.13
same,expression level of cDNA clone 2055867,[2],2.97
same,expression level of cDNA clone 2241825,[2],−2.39
same,expression level of cDNA clone 2311213,[2],−2.34
same,expression level of cDNA clone 2545486,[2],−2.49
same,expression level of cDNA clone 2550767,[2],2.1
same,expression level of cDNA clone 2956444,[2],2.1
same,expression level of cDNA clone 3222802,[2],2.4
same,expression level of cDNA clone 4019706,[2],2.99
same,expression level of cDNA clone 4287327,[2],2.66
same,expression level of cDNA clone 4715924,[2],−2.21
same,expression level of cDNA clone 5293028,[2],−2.3
same,expression level of cDNA clone 5399371,[2],−2.63
same,expression level of cDNA clone 293477,[2]; table row r18,2.83
same,expression level of cDNA clone 293477,[2]; table row r23,2
C[C@@H]1C[C@H]2[C@@H]3CCC4=CC(=O)C=C[C@]4(C)[C@@]3(F)[C@@H](O)C[C@]2(C)[C@@]1(O)C(=O)CO [Dexamethasone],expression level of cDNA clone 26474,[2],−4.2
same,expression level of cDNA clone 63038,[2],−2.36
same,expression level of cDNA clone 118501,[2],2.79
same,expression level of cDNA clone 167081,[2],2.14
same,expression level of cDNA clone 172023,[2],−5.8
same,expression level of cDNA clone 237027,[2],−2.85
same,expression level of cDNA clone 630625,[2],2.52
same,expression level of cDNA clone 990375,[2],−2.5
same,expression level of cDNA clone 1379063,[2],−3.42
same,expression level of cDNA clone 1381654,[2],2.57
same,expression level of cDNA clone 1441245,[2],−2.3
same,expression level of cDNA clone 1448718,[2],−3.1
same,expression level of cDNA clone 1468660,[2],−3.3
same,expression level of cDNA clone 1559756,[2],2.47
same,expression level of cDNA clone 1616783,[2],2.55
same,expression level of cDNA clone 1619292,[2],−4.4
same,expression level of cDNA clone 1623214,[2],−2.25
same,expression level of cDNA clone 1630990,[2],2.86
same,expression level of cDNA clone 1696224,[2],2.83
same,expression level of cDNA clone 1786554,[2],2.66
same,expression level of cDNA clone 1833362,[2],−3.7
same,expression level of cDNA clone 1834236,[2],−2.3
same,expression level of cDNA clone 1846209,[2],2.2
same,expression level of cDNA clone 1890576,[2],−2.5
same,expression level of cDNA clone 1975268,[2],−3.35
same,expression level of cDNA clone 1998269,[2],2.44
same,expression level of cDNA clone 2046717,[2],2.8
same,expression level of cDNA clone 2048551,[2],2.91
same,expression level of cDNA clone 2120743,[2],3.25
same,expression level of cDNA clone 2123516,[2],2.66
same,expression level of cDNA clone 2160794,[2],−2.51
same,expression level of cDNA clone 2195427,[2],2.3
same,expression level of cDNA clone 2343348,[2],2.18
same,expression level of cDNA clone 2470485,[2],−2.8
same,expression level of cDNA clone 2513883,[2],3.93
same,expression level of cDNA clone 2660756,[2],2.21
same,expression level of cDNA clone 2757583,[2],4.93
same,expression level of cDNA clone 2822027,[2],3
same,expression level of cDNA clone 2921991,[2],−2.95
same,expression level of cDNA clone 2925373,[2],−2.63
same,expression level of cDNA clone 2933775,[2],4.32
same,expression level of cDNA clone 3028719,[2],−2.6
same,expression level of cDNA clone 3084204,[2],−2.47
same,expression level of cDNA clone 3109384,[2],2.6
same,expression level of cDNA clone 3170010,[2],−3.67
same,expression level of cDNA clone 3284411,[2],−2.4
same,expression level of cDNA clone 3715059,[2],−3.17
same,expression level of cDNA clone 4091186,[2],2.45
same,expression level of cDNA clone 4508879,[2],2.86
same,expression level of cDNA clone 5399371,[2],2.63
O=c1cc(N2CCOCC2)oc2c(-c3ccccc3)cccc12 [LY294002],expression level of cDNA clone 172023,[2],−3.38
same,expression level of cDNA clone 279898,[2],6.7
same,expression level of cDNA clone 459372,[2],4.65
same,expression level of cDNA clone 1315663,[2],−3.27
same,expression level of cDNA clone 1468660,[2],−2.28
same,expression level of cDNA clone 1975268,[2],−3.45
same,expression level of cDNA clone 1998269,[2],−2.46
same,expression level of cDNA clone 2769888,[2],−3.37
same,expression level of cDNA clone 3427373,[2],4.2
same,expression level of cDNA clone 3715059,[2],−4.3
same,expression level of cDNA clone 4556538,[2],2.45
